Experiments:
mu opiate receptor (MOR) = biological target: T1, mu opiate receptor (MOR) (Rattus norvegicus, UniProt P33535); assay: [35S]GTPγS binding assay using striatal membranes (MOR agonist activity); assay type: biochemical; parameters: MOR agonist activity, [35S]GTPγS binding to Gαo, 0.1 μM / MOR agonist activity, [35S]GTPγS binding to Gαo, 1 μM / MOR agonist activity, [35S]GTPγS binding to Gαo, 1 μM + BFNA: reference not given here; conditions: for MOR agonist activity, [35S]GTPγS binding to Gαo, 0.1 μM: 0.1 μM compound; for MOR agonist activity, [35S]GTPγS binding to Gαo, 0.1 μM / MOR agonist activity, [35S]GTPγS binding to Gαo, 1 μM: striatal membranes; for MOR agonist activity, [35S]GTPγS binding to Gαo, 1 μM + BFNA: 1 μM compound + 1 μM β-funaltrexamine; for MOR agonist activity, [35S]GTPγS binding to Gαo, 1 μM: 1 μM compound
T1 construct: from tissue; host or cells: striatal tissue (membrane preparation)
Experimental: To assess the mu opiate receptor (MOR) agonist activity of positive compounds from the FLNA screening, compounds were tested in a [^35S]GTPγS binding assay using striatal membranes. Our previous study has shown that in striatal membranes, activation of MOR leads to an increase in [^35S]GTPγS binding to Gαo (Wang et al., 2005 Neuroscience 135:247-261).
Striatal tissue was homogenized in 10 volumes of ice cold 25 mM HEPES buffer, pH 7.4, which contained 1 mM EGTA, 100 mM sucrose, 50 μg/ml leupeptin, 0.04 mM PMSF, 2 μg/ml soybean trypsin inhibitor and 0.2% 2-mercaptoethanol. The homogenates were centrifuged at 800×g for 5 minutes and the supernatants were centrifuged at 49,000×g for 20 minutes. The resulting pellets were suspended in 10 volume of reaction buffer, which contained 25 mM HEPES, pH 7.5, 100 mM NaCl, 50 μg/ml leupeptin, 2 μg/ml soybean trypsin inhibitor, 0.04 mM PMSF and 0.02% […].
The resultant striatal membrane preparation (200 μg) was admixed and maintained (incubated) at 30° C. for 5 minutes in reaction buffer as above that additionally contained 1 mM MgCl2 and 0.5 nM [^35S]GTPγS (0.1 μCi/assay, PerkinElmer Life and Analytical Sciences) in a total volume of 250 μl and continued for 5 minutes in the absence or presence of 0.1-10 μM of an assayed compound of interest. The reaction was terminated by dilution with 750 μl of ice-cold reaction buffer that contained 20 mM MgCl2 and 1 mM EGTA and immediate centrifugation at 16,000×g for 5 minutes.
The resulting pellet was solubilized by sonicating for 10 seconds in 0.5 ml of immunoprecipitation buffer containing 0.5% digitonin, 0.2% sodium cholate and 0.5% NP-40. Normal rabbit serum (1 μl) was added to 1 ml of lysate and incubated at 25° C. for 30 minutes. Nonspecific immune complexes were removed by incubation with 25 μl of protein A/G-conjugated agarose beads at 25° C. for 30 minutes followed by centrifugation at 5,000×g at 4° C. for 5 minutes. The supernatant was divided and separately incubated at 25° C. for 30 minutes with antibodies raised against Gαo proteins (1:1,000 dilutions).
The immunocomplexes so formed were collected by incubation at 25° C. for 30 minutes with 40 μl of agarose-conjugated protein A/G beads and centrifugation at 5,000×g at 4° C. for 5 minutes. The pellet was washed and suspended in buffer containing 50 mM Tris-HCl, pH 8.0, and 1% NP-40. The radioactivity in the suspension was determined by liquid scintillation spectrometry. […] DAMGO (H-Tyr-D-Ala-Gly-N-MePhe-Gly-OH; 1 or 10 μM) was used as a positive control.

[1] = biological target: Bn-VAKGL pentapeptide of filamin A (FLNA) (Homo sapiens, UniProt P21333); assay: FITC-NLX-based FLNA screening assay (FLNA peptide binding assay); conditions: 10 nM FITC-NLX; for Percent inhibition of FITC-NLX binding, 0.01 μM: 0.01 μM compound; for Percent inhibition of FITC-NLX binding, 0.1 μM: 0.1 μM compound; for Percent inhibition of FITC-NLX binding, 1 μM: 1 μM compound
Experimental: The final assay volume is 100 μl.
Compounds are tested in triplicate or quadruplicate.

T1 sequence (P33535 whole entry): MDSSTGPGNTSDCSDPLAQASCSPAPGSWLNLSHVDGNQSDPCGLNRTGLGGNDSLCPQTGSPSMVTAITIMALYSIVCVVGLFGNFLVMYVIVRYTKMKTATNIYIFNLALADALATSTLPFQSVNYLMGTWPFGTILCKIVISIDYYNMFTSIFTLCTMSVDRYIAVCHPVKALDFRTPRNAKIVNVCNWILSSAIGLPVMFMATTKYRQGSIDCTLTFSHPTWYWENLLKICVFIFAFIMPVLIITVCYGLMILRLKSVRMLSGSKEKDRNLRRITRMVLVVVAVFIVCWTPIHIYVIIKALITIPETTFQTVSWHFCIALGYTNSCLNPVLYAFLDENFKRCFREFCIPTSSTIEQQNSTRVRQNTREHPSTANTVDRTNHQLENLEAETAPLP

Row | SMILES | MOR agonist activity, [35S]GTPγS binding to Gαo, 0.1 μM (mu opiate receptor (MOR)) [%] | MOR agonist activity, [35S]GTPγS binding to Gαo, 1 μM + BFNA (mu opiate receptor (MOR)) [%] | MOR agonist activity, [35S]GTPγS binding to Gαo, 1 μM (mu opiate receptor (MOR)) [%] | Percent inhibition of FITC-NLX binding, 0.01 μM [1] [%] | Percent inhibition of FITC-NLX binding, 0.1 μM [1] [%] | Percent inhibition of FITC-NLX binding, 1 μM [1] [%]
1 | COc1c2c(cc3c1C(CC(=O)Cc1ccccc1Cl)[N+](C)(C)CC3)OCO2.[I-] (stereo not drawn) [B0039] | 171.8 | 78.3 | 290.5 | 43.3 | 45.7 | 50.9
2 | COc1ccc(CCC(=O)CC2c3c(cc4c(c3OC)OCO4)CC[N+]2(C)C)c(OC)c1 (stereo not drawn) [B0043] | 74.8 | 166.4 | 248.1 | 30.8 | 39.2 | 46.8
3 | COc1cccc(CCC(=O)CC2c3c(cc4c(c3OC)OCO4)CC[N+]2(C)C)c1 (stereo not drawn) [B0034] | 122.5 | 41.8 | 235.2 | 49.1 | 54.2 | 59.1
4 | COc1ccc(C(=O)CC2c3c(cc4c(c3OC)OCO4)CC[N+]2(C)C)cc1 (stereo not drawn) [B0024] | 155.8 | 20.2 | 285.9 | 34.8 | 43.4 | 47.7
5 | COc1ccccc1CC(O)CC1c2c(cc3c(c2OC)OCO3)CC[N+]1(C)C.[I-] (stereo not drawn) [B0032] | 221.1 | 15.6 | 297.7 | 45.1 | 51.3 | 48.9
6 | COc1c2c(cc3c1C(CC(=O)c1ccc(O)c(C)c1)[N+](C)(C)CC3)OCO2 (stereo not drawn) [B0002] | 165.7 | 101.4 | 219.0 | 40.2 | 46.4 | 55.0
7 | COc1ccccc1C(=O)CC1c2c(cc3c(c2OC)OCO3)CC[N+]1(C)C (stereo not drawn) [B0025] | 159.6 | 137.7 | 234.6 | 41.7 | 49.4 | 56.6
8 | COc1c2c(cc3c1C(CC(=O)CCc1ccc(Cl)cc1)[N+](C)(C)CC3)OCO2 (stereo not drawn) [B0017] | 99.6 | 49.6 | 122.0 | 28.3 | 36.6 | 44.6
9 | COc1ccc(CCC(O)CC2c3c(cc4c(c3OC)OCO4)CC[N+]2(C)C)cc1 (stereo not drawn) [B0049] | 181.6 | 133.2 | 364.0 | 32.2 | 40.1 | 47.1
10 | COc1ccc(CCC(=O)CC2c3c(cc4c(c3OC)OCO4)CC[N+]2(C)C)cc1OC.[I-] (stereo not drawn) [B0042] | 69.9 | 43.1 | 107.5 | 40.8 | 46.4 | 51.6
11 | COc1ccccc1CC(O)CC1c2c(cc3c(c2OC)OCO3)CCN1C (stereo not drawn) [B0030] | 107.2 | 90.1 | 276.1 | 47.0 | 50.5 | 57.6
12 | COc1ccc(C(=O)CC2c3c(cc4c(c3OC)OCO4)CC[N+]2(C)C)c(F)c1.[I-] (stereo not drawn) [B0027] | 140.9 | 21.6 | 266.9 | 40.2 | 46.7 | 49.8
13 | COc1ccccc1CCC(=O)CC1c2c(cc3c(c2OC)OCO3)CC[N+]1(C)C (stereo not drawn) [B0045] | 129.3 | 83.8 | 193.1 | 63.2 | 68.2 | 73.9
14 | COc1c2c(cc3c1C(CC(O)CCc1ccccc1)N(C)CC3)OCO2 (stereo not drawn) [B0051] | 115.6 | 43.8 | 161.9 | 29.9 | 35.7 | 43.7
15 | COc1ccc(CCC(O)CC2c3c(cc4c(c3OC)OCO4)CCN2C)cc1 (stereo not drawn) [B0048] | 185.1 | 78.5 | 223.4 | 34.7 | 41.9 | 43.9
16 | COc1ccc(C(=O)CC2c3c(cc4c(c3OC)OCO4)CC[N+]2(C)C)cc1C.[I-] (stereo not drawn) [B0021] | 126.9 | 42.9 | 256.4 | 32.5 | 43.1 | 47.6
